Laboratory results from patent US6310090A, “Process and product for enhancing immune response in companion animals using a combination of antioxidants” (priority 2000, dated 2001).
Blank lines part the entries; values can stand above or below the compound they belong to.

How the values were obtained:
mouse splenocytes = settings: cited from earlier work
lymphocyte [1] = settings: rats; cited from earlier work
[2] = tested on: chemical-induced carcinogenesis; settings: mice; cited from earlier work
[3] = tested on: PHA (nonspecific immunity); test: delayed-type hypersensitivity (DTH) against PHA, β-carotene feeding; type: in vivo, dog (Beagle); settings: 50 mg of β-carotene
Experimental: (§1) In a fourth study, female Beagles (4 to 5 mo old) were supplemented daily with 0, 25, 50 or 100 mg of β-carotene to study the role of dietary β-carotene in enhancing the cell-mediated and humoral immune systems of the dog. The following parameters were assessed in all the animals or in the peripheral blood lymphocytes: (1) delayed-type hypersensitivity (DTH) against PHA (nonspecific immunity) and vaccine (specific immunity), (2) lymphocyte proliferation, (3) lymphocyte populations and (4) immunoglobulins (Ig).

IgM = test: immunoglobulins, β-carotene feeding; type: in vivo, dog (Beagle); settings: as early as 1 week after supplementation
Experimental: as §1

IgG = test: immunoglobulins, β-carotene feeding; type: in vivo, dog (Beagle); settings: as early as 1 week after supplementation
Experimental: as §1

cancer = settings: supplementation alone, compared with diets high in antioxidants; cited from earlier work
[4] = plasma β-carotene on daily feeding for 7 consecutive days; design: species or system dog (Beagle); settings: dog, in vivo
Experimental: (§2) Female Beagle dogs (18 to 19 months of age; 7 to 9 kg body weight) were fed a basal diet (The lams Co., Lewisburg, OH) which met or exceeded the requirement for all essential nutrients. Animals were housed indoors in light- (14 hr light; 10 hr dark) and temperature-controlled rooms. A test was conducted to study the uptake profile of β-carotene after a single oral dose of β-carotene.
(§3) Blood plasma was separated by centrifugation and β-carotene concentrations were analyzed using high performance liquid chromatography (HPLC) as follows. All procedures were conducted under dim light. Duplicate aliquots of plasma, each leukocyte homogenate, and each leukocyte subcellular fraction were extracted with a 1:1 mixture of diethyl ether and petroleum ether in the presence of BHT. The ether phase was removed and dried under a stream of nitrogen. The residue was reconstituted in mobile phase for the HPLC determination of β-carotene. Samples (50 μl) were injected onto a 5 μm spherical C-18 reverse-phase column (3.9×150 mm; Resolve) and eluted with a 47:47:6 (v/v/v) mixture of acetonitrile, methanol, and chloroform at a flow rate of 1.0 ml/min.
In a second study, the dogs (n=6/treatment) were fed daily at 0800 hr for 7 consecutive days with 0, 12.5, 25, 50 or 100 mg β-carotene. […] Plasma was isolated and analyzed for concentrations of β-carotene.

[5] = tested on: vaccine (specific immunity); test: delayed-type hypersensitivity (DTH) against vaccine, β-carotene feeding; type: in vivo, dog (Beagle); settings: 20 or 50 mg of β-carotene
Experimental: (§4) The following parameters were assessed in all the animals or in the peripheral blood lymphocytes: (1) delayed-type hypersensitivity (DTH) against PHA (nonspecific immunity) and vaccine (specific immunity), (2) lymphocyte proliferation, (3) lymphocyte populations and (4) immunoglobulins (Ig).

IL-2 = IL-2 production, β-carotene feeding; type: cell-based, dog (Beagle)
blood lymphocytes = tested on: blood lymphocytes; design: species or system dog (Beagle); settings: dog, in vivo
Experimental: as §2, §3
(§5) A third study was designed to study the uptake of β-carotene in dogs by blood lymphocytes. The dogs (n=8/treatment) were fed 0, 50 or 100 mg of β-carotene daily for 30 days. Blood was sampled from all dogs via the jugular vein on days 10, 20 and 30. Blood lymphocytes and neutrophils were separated by density gradient centrifugation. Cell numbers were enumerated. Lymphocytes and neutrophils were resuspended in PBS containing 3% sodium ascorbate as an antioxidant. An aliquot of the cell suspension was sonicated for 30 seconds to disrupt the cells. The leukocyte homogenates were extracted for HPLC analysis of β-carotene.
(§6) On day 30, a larger aliquot of blood was taken and leukocyte suspensions prepared as described above for subsequent subcellular fractionation. Cells were disrupted by sonication for 20 seconds in 5 volumes of 0.25 M sucrose. Sodium ascorbate was added as the antioxidant. The homogenate was centrifuged (600×g for 10 min at 4° C.) and the nuclear pellet separated from the supernatant. The postnuclear supernatant was centrifuged (17,300×g for 20 min at 4° C.) to separate the mitochondrial fraction. The postmitochondrial supernatant was centrifuged (102,000×g for 60 min at 4° C.) to separate the microsomal from the cytosolic fraction. Each subcellular fraction was analyzed for β-carotene content by HPLC.

[6] = uptake of β-carotene by blood neutrophils and their subcellular fractions; type: in vivo, dog (Beagle); settings: dog, blood neutrophils, po; 50 or 100 mg daily; read-out: time of maximal uptake by blood neutrophils
Experimental: as §2, §3, §5, §6

blood neutrophils = test: as above; type: in vivo, dog (Beagle); settings: dog, in vivo
Experimental: as §2, §3, §5, §6

CD4+ cells = test: lymphocyte populations, β-carotene feeding; type: in vivo, dog (Beagle); settings: 20 or 50 mg, week 8, compared to controls
Experimental: as §4

CD8 cells = test: lymphocyte populations, β-carotene feeding; type: in vivo, dog (Beagle); settings: 20 mg, weeks 2 and 4
Experimental: as §4

immune system = test: summary of the results from each of the studies (Table 1); type: in vivo, dog
[7] = uptake profile of plasma β-carotene after a single oral dose; design: species or system dog (Beagle); settings: dog, in vivo
Experimental: as §2
To study the uptake of oral β-carotene in dogs given a single dose of β-carotene orally, dogs (n=6/treatment) were given once perorally 0, 50, 100 or 200 mg of β-carotene (10% cold water dissolvable; BASF Corp., Ludwigshafen, Germany). The appropriate dose of β-carotene was dissolved in 5 ml of water fed orally by using a feeding syringe. In order to establish appropriate sampling times, two dogs were used in a preliminary study. These dogs were fed once with 50 mg β-carotene and blood sampled at 0 (immediately prior to β-carotene feeding), 3, 6, 9, 12, 15, 18, 21 and 24 hr.
as §3

immunoglobulins (Ig) = test: immunoglobulins / antibody levels in the blood, β-carotene feeding; type: in vivo, dog (Beagle)
Experimental: FIG. 1 is a graph of antibody concentration in dogs (mg/dl) versus mg/kg diet of beta-carotene; and
as §4

[8] = type: in vivo, dog (Beagle)
Experimental: as §1

lymphocyte [9] = test: mitogen-induced lymphocyte blastogenesis, β-carotene feeding; type: cell-based, dog (Beagle)
Experimental: as §1

lymphocyte [10] = test: lymphocyte mitogenic response to ConA and PHA, vitamin E diets; type: cell-based, dog (Beagle); settings: 8 weeks
Source text: Twenty young (mean age 2 years) and 20 old (mean age 9.2 years) Beagles were fed a standard commercial chicken/corn-based diet formulated to contain 27 IU/kg diet of vitamin E (NRC recommendation) (control diet) for 1 month prior to the commencement of the experiment in order to stabilize the dogs' vitamin E levels. Young and old dogs were then randomly assigned to the diets containing 27 IU/kg diet of vitamin E or 280 IU/kg diet of vitamin E for 8 weeks. Blood was collected before and after 8 weeks of dietary treatments for measurement of plasma vitamin E levels and assessment of lymphocyte mitogenic response to ConA (concanavalin A) and PHA (phytohemagglutinin).

[11] = daily β-carotene supplementation

Compound: CC1=C(/C=C/C(C)=C/C=C/C(C)=C/C=C/C=C(C)/C=C/C=C(C)/C=C/C2=C(C)C(=O)[C@@H](O)CC2(C)C)C(C)(C)C[C@H](O)C1=O [Astaxanthin, astaxanthin]
- ex vivo antibody response of mouse splenocytes to T-dependent antigens (mouse splenocytes): increase ex vivo antibody response

Compound: CC1=C(/C=C/C(C)=C/C=C/C(C)=C/C=C/C=C(C)/C=C/C=C(C)/C=C/C2=C(C)C(=O)CCC2(C)C)C(C)(C)CCC1=O [canthaxanthin]
- lymphocyte proliferation (lymphocyte [1]): increase lymphocyte proliferation in rats
- chemical-induced carcinogenesis [2]: prevent chemical-induced carcinogenesis in mice

- plasma β-carotene after the last dose, higher than after the first dose [4]: 2.5-4 fold
- share of total β-carotene in lymphocytes, cytosol (blood lymphocytes): 52-62%
- share of total β-carotene in lymphocytes, microsomes (blood lymphocytes): 16-23%
- share of total β-carotene in lymphocytes, mitochondria (blood lymphocytes): 14-17%
- share of total β-carotene in lymphocytes, nuclei (blood lymphocytes): 6-8%
- β-carotene concentrations in lymphocytes, 50 versus 100 mg (blood lymphocytes): no significant treatment difference
- Tmax [6]: ≤ 240 h
- dose effect on uptake by blood neutrophils (blood neutrophils): No significant dose effect was observed
- β-carotene in the cytosolic fraction of blood neutrophils (blood neutrophils): 61-68
- β-carotene in the nuclei of blood neutrophils (blood neutrophils): not detected
- concentration of β-carotene in plasma of dogs, lower than in cats [7]: 10-16 fold
- peak concentrations of blood β-carotene, dogs versus cats ([7]; po): occurred earlier in dogs than in cats
- Tmax ([7]; po, preliminary study, two dogs, 50 mg once orally, plasma, read-out: time of peak concentrations of β-carotene): 3 to 6 h
Compound: CC1=C(/C=C/C(C)=C/C=C/C(C)=C/C=C/C=C(C)/C=C/C=C(C)/C=C/C2=C(C)CCCC2(C)C)C(C)(C)CCC1 [β-carotene]
- DTH response to PHA challenge [3]: greatest response
- concentration of IgM (IgM): increased significantly
- concentration of IgG (IgG): increased significantly
- concentration of total IgG (IgG; total IgG): increased significantly
- magnitude of protection (cancer): do not provide the same magnitude of protection
- DTH response to the vaccine [5]: significantly higher DTH response
- IL-2 production (IL-2): did not influence
- population of CD4+ cells (CD4+ cells): elevated population of CD4+ cells
- population of CD8 cells (CD8 cells): elevated population of CD8 cells
- Increase antibody levels in the blood (immune system; Table 1): .check mark.
- Optimize types of cells present in the blood (immune system; Table 1): .check mark.
- Optimize vaccine recognition by the dog (immune system; Table 1): .check mark.
- increases in Ig (immunoglobulins (Ig); 0 to 20 mg of β-carotene): dose dependent
- antibody response for both Ig (immunoglobulins (Ig); 20 mg of β-carotene): consistently had the greatest antibody response
- increase in antibody levels in the blood (immunoglobulins (Ig); FIG. 1, addition of β-carotene to the diet): 20%
- increases in Ig (immunoglobulins (Ig); highest level, 50 mg): did not produce a further increase
- ex vivo antibody response of mouse splenocytes to T-dependent antigens (mouse splenocytes): increase ex vivo antibody response
- plasma retinol [8, 11]: did not influence
- plasma α-tocopherol [8, 11]: did not influence
- plasma β-carotene concentrations ([8]; dog, in vivo): increased plasma β-carotene concentrations in a dose-dependent manner
- mitogen-induced lymphocyte blastogenesis (lymphocyte [9]): did not influence

Compound: vitamin E
- magnitude of protection (cancer): do not provide the same magnitude of protection
- Optimize immune cell activity (T-cells) (immune system; Table 1, Vitamin E column): .check mark.
- ConA and PHA-stimulated proliferation (lymphocyte [10]; dogs supplemented with 280 IU/kg diet): No such decrease was observed
- mitogen-stimulated lymphocyte proliferation (lymphocyte [10]; old dogs, 27 or 280 IU/kg diet): did not show a significant change
- ConA and PHA-stimulated proliferation (lymphocyte [10]; young dogs, 27 IU/kg diet): significant decrease
